Entries after “also recorded” stand apart in the source; their conditions may differ.
Columns and labels:
NIH-v-Src fibroblasts = assay: EGF-stimulated cell migration of transformed cells; assay type: cell-based; details: 10 ng/ml EGF, tracked 6 h before and 6 h after addition
Method: (§1) Image J was used to automatically quantify FAK-containing focal adhesions due to local maxima of fluorescence intensity in the GFP-channel (5 to 70 pixel). The number of cells was automatically counted in the Hoechst channel. To test reproducibility of the system 40 control wells were quantified wherein four positions for each well were imaged. […] GFP-FAK mouse embryonic fibroblasts were seeded on fibronectin and incubated for 1 h with the indicated concentrations of the small compounds, respectively. […] GFP-FAK mouse embryonic fibroblasts were seeded on fibronectin and serum-starved overnight. The indicated concentrations of Mb31 were applied for 30 min. Cells were lysed and analyzed for paxillin and FAK protein level as well as FAK Tyr397 phosphorylation. […] The purified kinase domain of FAK was incubated with increasing amounts of Mb31 for 1 h at 30°C together with poly-Glu-Tyr as a FAK substrate. […] Serum-starved GFP-FAK mouse embryonic fibroblasts were stimulated with normal growth medium and incubated for 5 h with the indicated concentrations of the small molecule compounds, respectively. Cell viability was assessed by MTT assay. […] GFP-FAK MEFs were seeded on fibronectin and serum-starved overnight. Migration was stimulated by replacing the medium with normal growth medium. Migration of single cells was tracked for 8 h in 30 min intervals. Migration was recorded from cells that were cultured without serum (A), with serum (B) or with serum in the presence of 3 µM Mb31 (C). […] (A) GFP-FAK MEFs were seeded and serum-starved as in Figure 10. Cell migration was stimulated with normal growth medium and single cells were tracked for 5 h. […] Mouse embryonic fibroblasts (MEFs) were transfected with talin-mCherry and talin dynamics analyzed in focal adhesions using fluorescence recovery after photobleaching (FRAP). […] (C) Wound closure was microscopically analyzed and evaluated using ImageJ software.
To further determine whether Mb31 interferes with cell motility, GFP-FAK MEFs were serum-stimulated and migration was quantified on a single cell basis (Figures 11 and 12). […]

[1] = tested on: MDA-MB-231 breast cancer cells; assay: In vitro wound healing assay; assay type: cell-based, human; details: 3 µM, 25 h, serum-containing growth medium
Method: as §1, with “h. (B) Mb31 was added and the same cells were tracked for additional 5 h. (C) Mean velocities of differently treated cells were plotted over time. […] NIH-v-Src fibroblasts were seeded on 2 µg/ml FN in DMEM/0.5%BSA and stimulated with 10 ng/ml EGF or kept unstimulated.” for “h.”, “(FRAP). Cells were left untreated (A) or treated with 10 µM of Mb31 (B). In untreated cells, the mCherry intensity recovered, indicating replacement of bleached by non-bleached talin and therefore turnover of talin at focal adhesions.” for “(FRAP).”
To determine if the migration of transformed cells can be blocked by FLocker1 and related compounds, human breast carcinoma cells (MDA-MB-231) were used in in vitro wound healing assays. […] The ability of the cells to migrate and close the wound space was monitored by microscopy and quantified (Figure 18B and C).

focal adhesions = assay: Focal adhesion dynamics by TIRF microscopy (mKate-vinculin); assay type: cell-based, mouse; details: 5 µM, 40 minutes
FAK = assay: Immunoblot of FAK and paxillin protein level and FAK Tyr397 phosphorylation; assay type: cell-based, mouse; details: serum-starved GFP-FAK MEFs, increasing concentrations, 30 min
Method: Image J was used to automatically quantify FAK-containing focal adhesions due to local maxima of fluorescence intensity in the GFP-channel (5 to 70 pixel). The number of cells was automatically counted in the Hoechst channel. To test reproducibility of the system 40 control wells were quantified wherein four positions for each well were imaged. […] GFP-FAK mouse embryonic fibroblasts were seeded on fibronectin and incubated for 1 h with the indicated concentrations of the small compounds, respectively. […] GFP-FAK mouse embryonic fibroblasts were seeded on fibronectin and serum-starved overnight. The indicated concentrations of Mb31 were applied for 30 min. Cells were lysed and analyzed for paxillin and FAK protein level as well as FAK Tyr397 phosphorylation. […] The purified kinase domain of FAK was incubated with increasing amounts of Mb31 for 1 h at 30°C together with poly-Glu-Tyr as a FAK substrate. […] Cell viability was assessed by MTT assay. […] Migration was recorded from cells that were cultured without serum (A), with serum (B) or with serum in the presence of 3 µM Mb31 (C). […] Mouse embryonic fibroblasts (MEFs) were transfected with talin-mCherry and talin dynamics analyzed in focal adhesions using fluorescence recovery after photobleaching (FRAP). […] (C) Wound closure was microscopically analyzed and evaluated using ImageJ software. […]

focal adhesion proteins = assay: Localization of focal adhesion proteins (fluorescent fusion proteins) in presence of Mb31; assay type: cell-based, Mouse; details: 10 µM Mb31, 30 min; value is the protein
Method: In order to investigate the kinetics of FAK displacement at focal adhesions a time series was performed. GFP-FAK MEFs were treated with 20 µM of Mb31 or Mb36 and fixed after different time points. […] Mb36 kinetic was slightly slower with FAK delocalization after 20 min. In addition, GFP-FAK MEFs were treated with increasing concentrations of Mb31 or Mb36 to determine the minimum concentration required to interfere with FAK localization. Untreated or solvent (DMSO) treated cells show the expected localization of FAK at focal adhesions. […] Already 2 µM of Mb31 were sufficient to induce FAK displacement. […] Due to the faster kinetic and lower IC50 compared to Mb36 further studies were mainly performed using Mb31. […] In contrast, vinculin localization and the focal adhesion localization of talin, α-actinin, and zyxin is not disturbed (Figure 5 and Table 1).
Mouse embryonic fibroblasts expressing the indicated proteins as fluorescent fusion proteins were incubated with 10 µM Mb31 or solvent alone for 30 min. Afterwards, the cells were fixed and the localization of the focal adhesion proteins was analyzed microscopically.

O=[N+]([O-])C=Cc1cc(Br)cs1 [FootLocker 1, 4-bromo-2-(2-nitrovinyl)thiophene]
migration of EGF-stimulated cells (NIH-v-Src fibroblasts): efficiently inhibit the migration
migration of cancer cells / wound closure [1]: retarded the migration of the cancer cells
nascent adhesion formation and mobility of mature adhesions (focal adhesions): nascent adhesion formation was absent and mature adhesions were immobile
Y397 phosphorylation of FAK (FAK): not influenced
degradation of FAK and paxillin (protein levels) (FAK): Neither for FAK nor for paxillin was any degradation observed
Displaced from focal adhesions (focal adhesion proteins): Focal adhesion kinase (FAK) and Paxillin and Grb2 and CRKII
No effect on localization (focal adhesion proteins): Talin; also recorded: α-actinin; also recorded: Vinculin; also recorded: Zyxin
